From ChEMBL document CHEMBL4340544, “Discovery of 4,6-bis(benzyloxy)-3-phenylbenzofuran as a novel Pin1 inhibitor to suppress hepatocellular carcinoma via upregulating microRNA biogenesis” (Bioorg Med Chem, 2019) come the findings set out here.

Experiment [1] has as its target T1, Peptidyl-prolyl cis-trans isomerase NIMA-interacting 1 (Homo sapiens, UniProt Q13526). Put plainly: Inhibition of N-terminal 6-His tagged full length Pin1 (unknown origin) expressed in Escherichia coli at 10 uM using Suc-AEPF-pNA as substrate preincubated for 10 mins followed by substrate addition and measured for 180 secs by spectrophotometry relative to untreated control.

For experiment [2], the system named is SK-HEP1. Put plainly: Antiproliferation activity against human SKHEP1 cells assessed as reduction in colony formation at 2.5 uM measured after 7 days by crystal violet staining based microscopic analysis. In kind it is functional, cell-based.
The target of experiment [3] is Peptidyl-prolyl cis-trans isomerase FKBP1A (Homo sapiens) (UniProt P62942). Put plainly: Inhibition of recombinant N-terminal His6-tagged FKBP12 (unknown origin) expressed in Escherichia coli at 1 to 50 uM using Suc-AEPF-pNA as substrate preincubated for 10 min followed by substrate addition measured for 180 secs.
The target of experiment [4] is T1, Peptidyl-prolyl cis-trans isomerase NIMA-interacting 1. Put plainly: Inhibition of Pin1 in human SKHEP1 cells assessed as increase in miR-29b expression at 2.5 uM incubated for 36 hrs by quantitative RT PCR analysis. In kind it is cell-based.
Experiment [5] has the same target. Put plainly: Inhibition of Pin1 in human SKHEP1 cells assessed as increase in cytoplasm distribution of XPO5 at 2.5 uM incubated for 36 hrs by DAPI staining based confocal microscopic analysis. In kind it is cell-based.
For experiment [6], the system named is SK-HEP1. Put plainly: Cytotoxicity against human SKHEP1 cells assessed as reduction in cell viability by MTT assay. In kind it is functional, cell-based.
For experiment [7], the target named is Peptidyl-prolyl cis-trans isomerase A (Homo sapiens) (UniProt P62937). Put plainly: Inhibition of recombinant N-terminal His6-tagged Cyclophilin A (unknown origin) expressed in Escherichia coli at 1 to 50 uM using Suc-AEPF-pNA as substrate preincubated for 10 min followed by substrate addition measured for 180 secs.
The subject of another experiment is SNU-423. Put plainly: Cytotoxicity against human SNU423 cells assessed as reduction in cell viability by MTT assay. In kind it is functional, cell-based. For orientation: Formazan colour is commonly taken as a measure of viable cells.
For experiment [8], the target named is T1, Peptidyl-prolyl cis-trans isomerase NIMA-interacting 1. Put plainly: Inhibition of recombinant N-terminal His6-tagged Pin1 (unknown origin) expressed in Escherichia coli at 1 to 50 uM using Suc-AEPF-pNA as substrate preincubated for 10 min followed by substrate addition measured for 180 secs.
Experiment [9] concerns the target Peptidyl-prolyl cis-trans isomerase NIMA-interacting 4 (Homo sapiens) (UniProt Q9Y237). Put plainly: Inhibition of recombinant N-terminal His6-tagged Pin4 (unknown origin) expressed in Escherichia coli at 1 to 50 uM using Suc-AEPF-pNA as substrate preincubated for 10 min followed by substrate addition measured for 180 secs.
Experiment [10] has as its target T1, Peptidyl-prolyl cis-trans isomerase NIMA-interacting 1. Put plainly: Inhibition of N-terminal 6-His tagged full length Pin1 (unknown origin) expressed in Escherichia coli using Suc-AEPF-pNA as substrate preincubated for 10 mins followed by substrate addition and measured for 180 secs by spectrophotometry.
Experiment [11] has the same target. Put plainly: Inhibition of Pin1 in human SKHEP1 cells assessed as increase in miR-122 expression at 2.5 uM incubated for 36 hrs by quantitative RT PCR analysis. In kind it is cell-based.

pIC50: −log10 of the molar value. Calls of active or inactive are those of the source. The calls are words filed in the database; no cut-off is given here.

T1 sequence (Q13526 whole entry): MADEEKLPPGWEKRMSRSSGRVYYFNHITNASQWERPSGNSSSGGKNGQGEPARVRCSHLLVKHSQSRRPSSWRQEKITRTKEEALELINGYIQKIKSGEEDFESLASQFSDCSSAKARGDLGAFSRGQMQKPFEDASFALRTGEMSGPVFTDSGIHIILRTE
Sequence of Peptidyl-prolyl cis-trans isomerase A (Homo sapiens) (P62937 whole entry, looked up): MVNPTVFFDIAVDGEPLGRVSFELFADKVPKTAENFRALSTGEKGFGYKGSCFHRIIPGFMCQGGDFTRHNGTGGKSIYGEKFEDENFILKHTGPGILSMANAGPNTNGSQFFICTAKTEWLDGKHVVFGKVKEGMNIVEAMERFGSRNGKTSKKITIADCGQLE
Sequence of Peptidyl-prolyl cis-trans isomerase FKBP1A (Homo sapiens) (P62942 whole entry, looked up): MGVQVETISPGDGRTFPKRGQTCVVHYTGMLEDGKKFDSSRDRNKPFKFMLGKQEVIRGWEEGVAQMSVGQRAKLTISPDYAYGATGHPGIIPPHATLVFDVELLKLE
Sequence of Peptidyl-prolyl cis-trans isomerase NIMA-interacting 4 (Homo sapiens) (Q9Y237 whole entry): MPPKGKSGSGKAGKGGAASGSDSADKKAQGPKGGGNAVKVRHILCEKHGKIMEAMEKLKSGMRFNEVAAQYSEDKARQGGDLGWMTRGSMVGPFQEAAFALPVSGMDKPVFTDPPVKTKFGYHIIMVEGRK

Usually inhibition stands for the share of the control response that was lost under treatment. The compound `Oc1ccc2occ(-c3ccc(F)cc3)c2c1` showed an inhibition in experiment [1] of 23.8%.

The compound `c1coc(-c2coc3ccccc23)c1` yielded an inhibition in experiment [1] of 22.2%.

On to `O=[N+]([O-])c1ccc2occ(-c3ccc4c(c3)OCO4)c2c1`, for which, in experiment [1], the inhibition turned out to be 23.4%.

In turn, `c1ccc(-c2oc3ccccc3c2-c2ccccc2)cc1` showed an inhibition in [1] of 15.8%.

In turn, `COc1cccc2c(-c3ccccc3)coc12` showed an inhibition in experiment [1] of 22.2%.

Compound `COc1ccc(-c2coc3ccc(C#N)cc23)cc1` gave an inhibition in experiment [1] of 38.2%.

In experiment [1], `Cc1cccc2c(-c3ccccc3)c(-c3ccccc3)oc12` yielded an inhibition of 19.6%.

In the case of `COc1cc(OC)c2c(-c3ccccc3)coc2c1`, in [1], the inhibition is 69.6%.

For the compound `Cc1ccc(-c2coc3c(Cl)cc([N+](=O)[O-])cc23)cc1`, in [1], the inhibition was determined as 30.3%.

`COc1ccc2occ(-c3ccc(C)cc3)c2c1`: the inhibition in experiment [1] worked out at 29.8%.

`Oc1ccc2occ(-c3ccccc3)c2c1` returned an inhibition in experiment [1] of 28%.

`COc1ccc(-c2coc3ccc([N+](=O)[O-])cc23)cc1`: the inhibition in [1] is 43.7%.

With `COc1ccc2occ(-c3ccc(Cl)cc3)c2c1`, the inhibition in [1] stood at 18%.

As to `Brc1ccc2occ(-c3ccccc3)c2c1`, in [1], the inhibition worked out at 19.5%.

As for `Oc1ccc2occ(-c3ccc(Cl)cc3)c2c1`, the inhibition in experiment [1] amounted to 13.8%.

In experiment [1], `O=C1C=CC(=O)c2c(O)cccc21` yielded an inhibition of 52.6%.

Take `COc1ccc2occ(-c3ccc(F)cc3)c2c1`: the inhibition in experiment [1] was 30.7%.

For the compound `COc1ccc2c(C)coc2c1`, the inhibition in experiment [1] is 65.1%.

`Cc1ccc(-c2coc3ccc(O)cc23)cc1C` displayed an inhibition in experiment [1] of 27.8%.

In [1], `COc1ccc2occ(-c3ccccc3)c2c1` came in with an inhibition of 27%.

`COc1ccc2oc(-c3ccccc3)c(-c3ccccc3)c2c1`: the inhibition in [1] came out at 25.7%.

As to `c1ccc(-c2coc3ccccc23)cc1`, in experiment [1], the inhibition turned out to be 12.4%.

`Clc1ccc(-c2coc3ccccc23)cc1`: the inhibition in experiment [1] amounted to 18.3%.

The compound `CC(C)(C)c1ccc2c(-c3ccc4c(c3)OCO4)coc2c1` displayed an inhibition in experiment [1] of 63.7%.

Compound `Cc1ccc2oc(-c3ccccc3)c(-c3ccccc3)c2c1` yielded an inhibition in experiment [1] of 13.9%.

Compound `O=[N+]([O-])c1ccc2occ(-c3cccc4ccccc34)c2c1` returned an inhibition in [1] of 14%.

In experiment [1], `Cc1ccc(-c2coc3ccc(O)cc23)cc1` displayed an inhibition of 33.1%.

Usually pIC50 stands for −log10 of the IC50, conventionally taken in molar units. On to `c1ccc(COc2cc(OCc3ccccc3)c3c(-c4ccccc4)coc3c2)cc1`, for which, in the experiment on SK-HEP1 [2], the outcome was Active. Further, the inhibition result in experiment [3], in experiment [7] and in experiment [9] was “inactive” throughout. Besides, the inhibition result in [4], in experiment [5], in [8] and in experiment [11] was “Active” throughout. In addition, the pIC50 in the experiment with SK-HEP1 [6] was 5.94; in the experiment with SNU-423, 5.56; in experiment [10], 6.06. The compound also returned an inhibition in experiment [1] of 75.4%.

Compound `c1ccc2c(-c3ccsc3)coc2c1` had an inhibition in [1] of 43.5%.

Regarding `Clc1cccc2c(-c3ccccc3)c(-c3ccccc3)oc12`, the inhibition in [1] was found to be 13.6%.

Take `COc1ccc2c(-c3ccccc3)coc2c1`: the pIC50 in [10] was 5.65.

For `Cc1ccc(-c2coc3c(C)c(C)ccc23)cc1`, the inhibition in experiment [1] came to 64.6%.

In experiment [1], `Clc1cc(Cl)c2occ(-c3ccccc3)c2c1` yielded an inhibition of 16.2%.

As to `N#Cc1ccc2occ(-c3ccc4c(c3)OCO4)c2c1`, the inhibition in [1] was 46.9%.

In experiment [1], `COc1cccc2occ(-c3ccccc3)c12` returned an inhibition of 59.5%.

`Clc1ccc2oc(-c3ccccc3)c(-c3ccccc3)c2c1` returned an inhibition in [1] of 22.9%.

`COc1cc(OC)c2c(C)coc2c1` came in with an inhibition in [1] of 45.9%.

`COc1cccc(-c2coc3ccccc23)n1` had an inhibition in [1] of 34.8%.

Consider `Cc1ccc(-c2coc3ccc([N+](=O)[O-])cc23)cc1`, for which, in experiment [1], the inhibition came out at 32.6%.

As for `Clc1ccc2occ(-c3ccccc3)c2c1`, the inhibition in [1] was found to be 19.2%.

In turn, `CC(C)(C)c1ccc2occ(-c3ccc(Br)cc3)c2c1` displayed an inhibition in experiment [1] of 28.9%.

For `COc1ccc(-c2coc3ccccc23)cc1`, in experiment [1], the inhibition is 54.8%.

Consider `CC(C)(C)c1ccc2occ(-c3ccccc3)c2c1`, for which the inhibition in experiment [1] was found to be 11%.

`COc1ccc2occ(-c3ccc(C)c(C)c3)c2c1` yielded an inhibition in experiment [1] of 23.7%.
